According to patent publication US20110034498A1, “DOSING REGIMENS FOR THE TREATMENT OF CANCER” (priority 2006, published 2011):

What was measured:
Assay type in all cases: in vivo
PC-3 cells = test: mouse PC-3 prostate xenograft model, subcutaneous tumor burden; details: for End Volume / Start Volume: 10 mg/kg/day (table); for End Volume: after 25 days of treatment; for Start Volume: tumor volume at start
Method: A study was performed in mouse PC-3 prostate xenograft models to assess the ability of the methods of the present invention to reduce subcutaneous tumor burden. In the study male athymic nude (Nu/Nu) mice were implanted with PC-3 cells (1×10^7 cells) into the flank of the left leg. When the average tumor size reached 200 mm^3 animals were randomly assigned to treatment groups (N=12/group). Mice were implanted with Alzet mini pumps containing either the HCl salt of compound 1 or vehicle (30% HPBCD in WFI). The mini pumps were surgically implanted subcutaneously on the flank of the right leg, contralateral to the site of the tumor implant. The pumps were replaced with new pumps every 6th day of the study. In the study, mice received either vehicle or the test compound at 10.6 mg/kg/day. Tumor volumes for each group were measured at regular intervals during treatment. The animals were sacrificed after 25 days of treatment and tumor volumes were compared.
A study was performed in mouse PC-3 prostate xenograft models to assess the ability of the methods of the present invention to reduce subcutaneous tumor burden. Male athymic nude (Nu/Nu) mice were implanted with PC-3 cells (1×10^7 cells) into the flank of the left leg. When the average tumor size reached 200 mm^3, animals were randomly assigned to treatment groups (N=12/group). […] The mini pumps were surgically implanted subcutaneously on the flank of the right leg, contralateral to the site of the tumor implant. The pumps were replaced with new pumps every 6th day of the study. Mice received either vehicle or the test compound at 10.6 mg/kg/day. Tumor volumes for each group were measured at regular intervals during treatment. The animals were sacrificed after 25 days of treatment, and tumor volumes were compared.

SKOV-3 cells = test: mouse SKOV-3 xenograft model, subcutaneous tumor burden; details: for End Volume / Start Volume: nude mice, HCl salt via s.c. Alzet mini pump; for End Volume: treatment lasted 74 days; for Start Volume: tumor volume at start
Method: When the average tumor size reached 50 mm^3, animals were randomly assigned to treatment groups. […] Tumor volumes of the two groups were measured at regular intervals during treatment, which lasted 74 days.

PAN-02 cells = test: mouse PAN-02 xenograft model, subcutaneous tumor burden
Description: The PAN-02 cells were maintained by in vivo passaging in C57/1316 mice. Male C57/B16 mice were implanted with PAN-02 cells (8 mm^3 tumor fragments) into the inguinal area. Each mouse was implanted with an 8 mm^3 tumor PAN-02 tumor fragment collected from a donor mouse. The tumor fragment was loaded onto a 16 G trocar and implanted by piercing through the skin in the right inguinal area. The animals were randomly assigned to treatment groups (N=14/group). […] Mice received either vehicle or the test compound at 20 mg/kg/day. Tumor volumes of the two groups were measured at regular intervals during treatment, which lasted 32 days.

[1] = PC-3 xenograft, male athymic nude mice, HCl salt via s.c. Alzet mini pump, continuous
[2] = PC-3 xenograft (Example 5), nude mice, HCl salt of cyclopamine via s.c. Alzet mini pump

CC1=C2C[C@H]3[C@@H](CCC4=CC(=O)CC[C@@]43C)[C@@H]2CC[C@@]2(C1)O[C@@H]1C[C@H](C)CN[C@H]1[C@H]2C [Compound 1]
End Volume (PC-3 cells; [1]): 444 ± 101 mm^3
Start Volume (PC-3 cells; [1]): 188 ± 17 mm^3
growth of the tumors (PC-3 cells; PC-3 xenograft, continuous doses 10.6 mg/kg/day, 25 days, versus vehicle): significantly reduced
growth of the tumors (SKOV-3 cells; continuous doses 10.6 or 20 mg/kg/day, 74 days, versus vehicle): significantly reduced
End Volume (SKOV-3 cells; 10.6 mg/kg/day): 186 ± 57 mm^3
Start Volume (SKOV-3 cells; 10.6 mg/kg/day): 57 ± 5 mm^3
End Volume (SKOV-3 cells; 20 mg/kg/day): 52 ± 11 mm^3
Start Volume (SKOV-3 cells; 20 mg/kg/day): 31 ± 4 mm^3
growth of the tumors (PAN-02 cells; PAN-02 model, continuous doses 20 mg/kg/day, 32 days, versus vehicle): significantly reduced
End Volume (PAN-02 cells; PAN-02 tumor fragments in male C57/B16 mice, HCl salt via s.c. Alzet mini pump, 20 mg/kg/day, treatment lasted 32 days): 481 ± 64 mm^3
Start Volume (PAN-02 cells; PAN-02 tumor fragments in male C57/B16 mice, HCl salt via s.c. Alzet mini pump, 20 mg/kg/day, tumor volume at start): 82 ± 8 mm^3

CC1=C2C[C@H]3[C@@H](CC=C4C[C@@H](O)CC[C@@]43C)[C@@H]2CC[C@]12O[C@@H]1C[C@H](C)CN[C@H]1[C@H]2C [Cyclopamine, reference compound]
End Volume (PC-3 cells; [2]): 448 ± 152 mm^3
Start Volume (PC-3 cells; [2]): 170 ± 29 mm^3
